Test results reported in patent US9896441B2 (Lycera Corporation, priority 2014, dated 2018).

What follows are molecules tested against T1, Gal4-RORγ-LBD (Homo sapiens, UniProt P51449) (assay: Gal4-RORγ Luciferase Reporter Assay in HEK-293T Cells). Settings: HEK-293 cells, luciferase reporter, in presence of ursolic acid.
T1 construct: expressed in transfected cells
T1 sequence (P51449 269-508 limits assumed): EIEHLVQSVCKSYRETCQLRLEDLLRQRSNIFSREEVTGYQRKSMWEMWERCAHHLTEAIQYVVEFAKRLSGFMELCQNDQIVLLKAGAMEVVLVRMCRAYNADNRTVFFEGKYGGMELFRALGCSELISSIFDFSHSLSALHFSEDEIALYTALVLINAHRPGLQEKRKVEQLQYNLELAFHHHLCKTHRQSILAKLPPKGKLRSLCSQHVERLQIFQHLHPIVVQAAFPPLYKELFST
Type: cell-based
Protocol: Assay procedures and results are described below.
In the following protocol, HEK-293 cells were transfected with a construct comprising the Gal4 DNA binding domain fused to the ligand binding domain of RORγ (Gal4-RORγ-LBD) in a pcDNA3.1neo plasmid, and also with a reporter construct comprising pGL4.31 Gal4-luciferase (Promega). Control cells were prepared similarly using empty pcDNA3.1neo and pGL4.31 vectors.
Trans-IT reagent (Mirus, 60 μL) at room temperature was added drop wise to OptiMEM (Invitrogen, 1.5 ml). This reagent mixture was mixed by inversion then incubated for 5 to 30 minutes at room temperature. It then was added to a solution of both expression vectors (5 μg each), mixed, and incubated at room temperature for about 20 minutes. HEK-293 cells were harvested from incubation flasks by removing the media, treating with TrypLE Express (Invitrogen), and incubating until the cells detached from the bottom of the flask (approximately 2-5 minutes). 10 Million cells were collected by centrifugation and re-suspended in 10 mL of Dulbecco's Modified Eagle Medium, High Glucose (DMEM, Invitrogen) containing 10% Fetal Bovine Serum and 100 IU each of penicillin and streptomycin. The re-suspended cells and the transfection mixture were added to a T75 flask, mixed and incubated overnight at 37° C. and 5% CO2.
The cells were harvested as described above, counted, and centrifuged to obtain the desired number of cells, then re-suspended in complete growth media at 0.75×10^6 cells/mL. The RORγ antagonist, ursolic acid, was added to the cells at a final concentration of […]. Cells were plated at 20 µL of cell suspension/well (10,000-15,000 cells/well) in white tissue culture treated 384 well plates. Test compounds were dissolved at 10 mM in DMSO then diluted into complete growth medium to 5× the final intended test concentration. These drug stock solutions, 5 µL/well were added to the tissue culture plate. The final DMSO concentration was 0.2%. The plates were briefly centrifuged then incubated overnight at 37° C. and 5% CO2. To conduct the assay, the tissue culture plates were allowed to equilibrate to room temperature and One-Glo luciferase reagent (Promega, 25 µL/well) was added. The plates were briefly centrifuged then incubated at room temperature for 10 minutes. The luciferase intensity was read on an Envision plate reader (Perkin Elmer). […] The luciferase signal in the absence of ursolic acid or test compound is defined at 100. The Max Response is the upper plateau in the signal as determined by line-fit using a 4-parameter logistic model in PRISM (GraphPad).
C/C(=C\c1ccc2c(c1)N(S(=O)(=O)c1cccc(C(F)(F)F)c1)C[C@H](CCC(=O)N1CC(C#N)C1)O2)c1c(F)cccc1Cl [Example 127M, (S,E)-1-(3-(6-(2-(2-chloro-6-fluorophenyl)-prop-1-en-1-yl)-4-((3-(trifluoromethyl)phenyl)-sulfonyl)-3,4-dihydro-2H-benzo[b][1,4]oxazin-2-yl)propanoyl)azetidine-3-carbonitrile] showed an EC50 of less than 0.5 µM. Work on CC(=O)NC1CN(C(=O)CC[C@H]2CN(S(=O)(=O)c3cccc(C(F)(F)F)c3)c3cc(/C=C(\C)c4c(F)cccc4Cl)ccc3O2)C1 [Example 127N, (S,E)-N-(1-(3-(6-(2-(2-chloro-6-fluorophenyl)-prop-1-en-1-yl)-4-((3-(trifluoromethyl)phenyl)-sulfonyl)-3,4-dihydro-2H-benzo[b][1,4]oxazin-2-yl)propanoyl)azetidin-3-yl)acetamide] yielded an EC50 of less than 0.5 µM. For C/C(=C\c1ccc2c(c1)N(S(=O)(=O)c1cccc(C(F)(F)F)c1)C[C@H](CCC(=O)NCCC(=O)O)O2)c1c(F)cccc1Cl [Example 129P, (S,E)-3-(3-(6-(2-(2-chloro-6-fluorophenyl)-prop-1-en-1-yl)-4-((3-(trifluoromethyl)phenyl)-sulfonyl)-3,4-dihydro-2H-benzo[b][1,4]oxazin-2-yl)propanamido)-propanoic acid], the EC50 was less than 0.5 µM.

Same assay, conditions: HEK-293 cells, luciferase reporter, in presence of ursolic acid, maximum response
C/C(=C\c1ccc2c(c1)N(S(=O)(=O)c1cccc(C(F)(F)F)c1)C[C@H](CCC(=O)N1C3CCC1COC3)O2)c1c(F)cccc1Cl [Example 127K, 1-(3-oxa-8-azabicyclo-[3.2.1]octan-8-yl)-3-((S)-6-((E)-2-(2-chloro-6-fluorophenyl)prop-1-en-1-yl)-4-((3-(trifluoro-methyl)phenyl)sulfonyl)-3,4-dihydro-2H-benzo[b][1,4]oxazin-2-yl)propan-1-one] was tested, and the “Gal4-RORγ Assay Max Response” value was “** (a value in the range of greater than 90 to 150)”. In the case of C/C(=C\c1ccc2c(c1)N(S(=O)(=O)c1cccc(C(F)(F)F)c1)C[C@H](CCC(=O)N1CC(O)C1)O2)c1c(F)cccc1Cl [Example 127L, (S,E)-3-(6-(2-(2-chloro-6-fluorophenyl)prop-1-en-1-yl)-4-((3-(trifluoro-methyl)phenyl)sulfonyl)-3,4-dihydro-2H-benzo[b][1,4]oxazin-2-yl)-1-(3-hydroxyazetidin-1-yl)propan-1-one], the “Gal4-RORγ Assay Max Response” value is reported as “* (a value in the range of 30 to 90)”. In the case of C/C(=C\c1ccc2c(c1)N(S(=O)(=O)c1cccc(C(F)(F)F)c1)C[C@H](CCC(=O)N1CC(C#N)C1)O2)c1c(F)cccc1Cl [Example 127M, (S,E)-1-(3-(6-(2-(2-chloro-6-fluorophenyl)-prop-1-en-1-yl)-4-((3-(trifluoromethyl)phenyl)-sulfonyl)-3,4-dihydro-2H-benzo[b][1,4]oxazin-2-yl)propanoyl)azetidine-3-carbonitrile], the “Gal4-RORγ Assay Max Response” value is reported as “** (a value in the range of greater than 90 to 150)”. For CC(=O)NC1CN(C(=O)CC[C@H]2CN(S(=O)(=O)c3cccc(C(F)(F)F)c3)c3cc(/C=C(\C)c4c(F)cccc4Cl)ccc3O2)C1 [Example 127N, (S,E)-N-(1-(3-(6-(2-(2-chloro-6-fluorophenyl)-prop-1-en-1-yl)-4-((3-(trifluoromethyl)phenyl)-sulfonyl)-3,4-dihydro-2H-benzo[b][1,4]oxazin-2-yl)propanoyl)azetidin-3-yl)acetamide], the “Gal4-RORγ Assay Max Response” value was “** (a value in the range of greater than 90 to 150)”. For C/C(=C\c1ccc2c(c1)N(S(=O)(=O)c1cccc(C(F)(F)F)c1)C[C@H](CCC(=O)NCCC(=O)O)O2)c1c(F)cccc1Cl [Example 129P, (S,E)-3-(3-(6-(2-(2-chloro-6-fluorophenyl)-prop-1-en-1-yl)-4-((3-(trifluoromethyl)phenyl)-sulfonyl)-3,4-dihydro-2H-benzo[b][1,4]oxazin-2-yl)propanamido)-propanoic acid], the “Gal4-RORγ Assay Max Response” value was “*** (a value in the range of greater than 150 to 200)”.

Same assay, conditions: HEK-293 cells, luciferase reporter, with ursolic acid
In the case of CC/C(=C\c1ccc2c(c1)N(S(=O)(=O)c1cccc(C(F)(F)F)c1)C[C@H](CCC(=O)O)O2)c1ccccc1Cl [Example 36A, (S,E)-3-(6-(2-(2-chlorophenyl)but-1-en-1-yl)-4-((3-(trifluoromethyl)-phenyl)sulfonyl)-3,4-dihydro-2H-benzo[b][1,4]oxazin-2-yl)propanoic acid], the EC50 is reported as less than 0.5 µM. CC/C(=C\c1ccc2c(c1)N(S(=O)(=O)c1cccc(C(F)(F)F)c1)C[C@H](CCC(=O)OC)O2)c1ccccc1 [Example 36B, methyl (S,E)-3-(6-(2-phenylbut-1-en-1-yl)-4-((3-(trifluoromethyl)-phenyl)sulfonyl)-3,4-dihydro-2H-benzo[b][1,4]oxazin-2-yl)propanoate] showed an EC50 greater than 10 µM. O=C(O)CC[C@H]1CN(S(=O)(=O)c2cccc(C(F)(F)F)c2)c2cc(/C=C3\CCc4ccccc43)ccc2O1 [Example 38C, (S,E)-3-(6-((2,3-dihydro-1H-inden-1-ylidene)methyl)-4-((3-(trifluoromethyl)phenyl)sulfonyl)-3,4-dihydro-2H-benzo[b][1,4]-oxazin-2-yl)propanoic acid] showed an EC50 of 0.5 to 5 µM. CCOc1nn2c(c1S(=O)(=O)N1C[C@H](CCC(=O)OC)Oc3ccc(/C=C(\C)c4c(F)cccc4Cl)cc31)CCCC2 [Example 65, Methyl (S,E)-3-(6-(2-(2-chloro-6-fluorophenyl)prop-1-en-1-yl)-4-((2-ethoxy-4,5,6,7-tetrahydropyrazolo[1,5-a]pyridin-3-yl)sulfonyl)-3,4-dihydro-2H-benzo[b][1,4]oxazin-2-yl)propanoate] gave an EC50 of 0.5 to 5 µM. CCOc1nn2c(c1S(=O)(=O)N1C[C@H](CCC(=O)O)Oc3ccc(/C=C(\C)c4c(F)cccc4Cl)cc31)CCCC2 [Example 66, (S,E)-3-(6-(2-(2-Chloro-6-fluorophenyl)prop-1-en-1-yl)-4-((2-ethoxy-4,5,6,7-tetrahydropyrazolo[1,5-a]pyridin-3-yl)sulfonyl)-3,4-dihydro-2H-benzo[b][1,4]oxazin-2-yl)propanoic acid] gave an EC50 of less than 0.5 µM. Work on C/C(=C\c1ccc2c(c1)N(S(=O)(=O)c1cccc(C(F)(F)F)c1)C[C@H](CCC(=O)O)O2)c1c(Cl)cccc1Cl [Example 86AE, (S,E)-3-(6-(2-(2,6-dichlorophenyl)prop-1-en-1-yl)-4-((3-(trifluoromethyl)phenyl)-sulfonyl)-3,4-dihydro-2H-benzo[b][1,4]oxazin-2-yl)propanoic acid] yielded an EC50 of less than 0.5 µM. COC(=O)CC[C@H]1CN(S(=O)(=O)c2cccc(C(F)(F)F)c2)c2cc(/C=C(\C)c3ccccc3OC)ccc2O1 [Example 86AJ, (S,E)-methyl 3-(6-(2-(2-methoxyphenyl)prop-1-en-1-yl)-4-((3-(trifluoromethyl)phenyl)sulfonyl)-3,4-dihydro-2H-benzo[b][1,4]-oxazin-2-yl)propanoate] gave an EC50 of less than 0.5 µM. Work on C/C(=C\c1ccc2c(c1)N(S(=O)(=O)c1cc(F)cc(C(F)(F)F)c1)C[C@H](CCC(=O)O)O2)c1c(F)cccc1Cl [Example 86AQ, (S,E)-3-(6-(2-(2-chloro-6-fluorophenyl)-prop-1-en-1-yl)-4-((3-fluoro-5-(trifluoromethyl)-phenyl)sulfonyl)-3,4-dihydro-2H-benzo[1,4]oxazin-2-yl)propanoic acid] yielded an EC50 of less than 0.5 µM. In the case of CC(C)c1ccccc1/C=C/c1ccc2c(c1)N(S(=O)(=O)c1cccc(C(F)(F)F)c1)C[C@H](CCC(=O)O)O2 [Example 89CB, (S,E)-3-(6-(2-isopropylstyryl)-4-((3-(trifluoromethyl)-phenyl)-sulfonyl)-3,4-dihydro-2H-benzo[b][1,4]oxazin-2-yl)propanoic acid], the EC50 is reported as 0.5 to 5 µM. COC(=O)CC[C@H]1CN(S(=O)(=O)c2cccc(C(F)(F)F)c2)c2cc(/C=C/c3cccnc3C(F)(F)F)ccc2O1 [Example 89DF, methyl (S,E)-3-(4-((3-(trifluoromethyl)phenyl)-sulfonyl)-6-(2-(2-(trifluoromethyl)pyridin-3-yl)vinyl)-3,4-dihydro-2H-benzo[b][1,4]oxazin-2-yl)propanoate] gave an EC50 greater than 10 µM. COC(=O)CC[C@H]1CN(S(=O)(=O)c2cccc(C(F)(F)F)c2)c2cc(/C=C/c3ncccc3F)ccc2O1 [Example 89DG, methyl (S,E)-3-(6-(2-(3-fluoropyridin-2-yl)vinyl)-4-((3-(trifluoromethyl)phenyl)-sulfonyl)-3,4-dihydro-2H-benzo[b][1,4]oxazin-2-yl)propanoate] was tested, and the EC50 was greater than 10 µM. In the case of O=C(O)CC[C@H]1CN(S(=O)(=O)c2cccc(C(F)(F)F)c2)c2cc(/C=C3\CCCOC3)ccc2O1 [Example 95I, (S,E)-3-(6-((dihydro-2H-pyran-3(4H)-ylidene)methyl)-4-((3-(trifluoromethyl)phenyl)sulfonyl)-3,4-dihydro-2H-benzo[b][1,4]oxazin-2-yl)propanoic acid], the EC50 is reported as 0.5 to 5 µM.
